Patent publication US20240317744A1, “Bicyclic Ureas As Kinase Inhibitors” (Incyte Corporation, priority 2023, published 2024)
pIC50: −log10 of the molar value.

How the values were obtained:
[1] = molecular target: T1, pseudo-kinase domain (JH2, amino-acids 536-812) of human V617F mutant JAK2 (Homo sapiens, UniProt O60674, F794H/V617F/W659A/W777A); assay: JAK2 LanthaScreen JH2-V617F Binding Assay; conditions: JAK2 JH2-V617F 0.26 nM, 50 nM tracer, 1 hour at 25° C.; read-out: JH2 BIND V617F
T1 construct: pseudo-kinase domain (JH2, amino-acids 536-812 with 3 surface mutations W659A, W777A, F794H); His (C); purchased BPS Bioscience 79498; host or cells: baculovirus expression system
T1 sequence (O60674 536-812 V617F/W659A/W777A/F794H): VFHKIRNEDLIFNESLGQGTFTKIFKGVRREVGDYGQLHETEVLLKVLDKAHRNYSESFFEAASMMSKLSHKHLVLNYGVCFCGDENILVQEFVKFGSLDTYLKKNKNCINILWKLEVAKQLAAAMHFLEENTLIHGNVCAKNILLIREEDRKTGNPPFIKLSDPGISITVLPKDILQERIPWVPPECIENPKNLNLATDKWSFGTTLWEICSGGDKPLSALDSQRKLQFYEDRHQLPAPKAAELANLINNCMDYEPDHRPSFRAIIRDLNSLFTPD
Method in brief: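 IC50 values came from four-parameter dose-response fits of LanthaScreen signal, read after compounds sat 1 hour at 25° C with 0.26 nM baculovirus-expressed biotinylated protein, 50 nM fluorescent tracer and 0.25 nM streptavidin-Tb cryptate. Non-specific binding was set with 2 mM ATP.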

[2] = molecular target: T2, pseudo-kinase domain (JH2, amino-acids 536-812) of human Wild Type JAK2 (Homo sapiens, UniProt O60674, F794H/W659A/W777A); assay: JAK2 LanthaScreen JH2-WT Binding Assay; conditions: JAK2 JH2-WT 0.145 nM, 50 nM tracer, 1 hour at 25° C.; read-out: JH2 BIND WT
T2 construct: pseudo-kinase domain (JH2, amino-acids 536-812 with 3 surface mutations W659A, W777A, F794H); His (C); purchased BPS Bioscience 79463; host or cells: baculovirus expression system
T2 sequence (O60674 536-812 W659A/W777A/F794H): as the sequence (O60674 536-812 V617F/W659A/W777A/F794H) above, with F82V counted along it
Method in brief: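 TR-FRET tracer displacement: 0.145 nM biotinylated JH2 protein, 50 nM fluorescent tracer, 0.25 nM streptavidin-Tb, compound dilution series; 50 mM Tris pH 7.5, 10 mM MgCl2, 5 mM DTT; 1 h, 25° C. Non-specific binding with 2 mM ATP. IC50 by 4-parameter fit.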

[3] = molecular target: catalytic domain (JH1, amino acids 808-1132) of human JAK2 (Homo sapiens, UniProt O60674); assay: JAK2 HTRF Enzyme Activity Assay; assay type: biochemical; conditions: ATP 30 µM, 60 minutes at 25° C.; read-out: V617F ENZ 30 UM
Sequence of catalytic domain (JH1, amino acids 808-1132) of human JAK2 (O60674 808-1132 limits assumed): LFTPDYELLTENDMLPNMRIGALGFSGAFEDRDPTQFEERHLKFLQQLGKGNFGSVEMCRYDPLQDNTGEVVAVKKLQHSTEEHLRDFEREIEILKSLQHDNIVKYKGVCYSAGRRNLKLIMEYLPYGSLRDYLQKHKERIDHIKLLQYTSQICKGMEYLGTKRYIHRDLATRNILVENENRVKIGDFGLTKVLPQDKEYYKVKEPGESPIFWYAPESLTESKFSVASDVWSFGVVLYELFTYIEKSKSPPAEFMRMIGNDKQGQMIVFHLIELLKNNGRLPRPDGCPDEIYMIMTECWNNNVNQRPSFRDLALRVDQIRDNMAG

[4] = molecular target: T3, catalytic domain (JH1, amino acids 826-1132) of human JAK2 (Homo sapiens, UniProt O60674); assay: JAK2 LanthaScreen JH1 Binding Assay; conditions: JAK2 JH1 1.5 nM, 50 nM tracer, 2 hours at 25° C.; read-out: JH1 BIND
T3 construct: catalytic domain (JH1, amino acids 826-1132) of human JAK2; FLAG (N); biotin (biotinylated); purchased Carna Biosciences 08-445-20N; host or cells: baculovirus expression system
T3 sequence (O60674 826-1132): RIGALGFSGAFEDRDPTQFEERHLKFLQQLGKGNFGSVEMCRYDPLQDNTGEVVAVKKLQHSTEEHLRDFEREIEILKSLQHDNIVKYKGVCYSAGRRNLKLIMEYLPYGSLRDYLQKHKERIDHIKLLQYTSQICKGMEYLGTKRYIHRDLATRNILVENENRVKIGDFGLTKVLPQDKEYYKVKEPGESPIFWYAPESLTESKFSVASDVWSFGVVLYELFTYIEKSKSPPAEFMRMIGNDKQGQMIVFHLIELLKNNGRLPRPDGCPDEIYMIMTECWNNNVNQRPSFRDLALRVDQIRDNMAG
Method in brief: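 FLAG-tagged, biotinylated JAK2 JH1 (aa 826-1132, baculovirus-expressed; 1.5 nM) incubated 2 h at 25° C with compounds, 50 nM fluorescent tracer and 0.5 nM Streptavidin-Tb in Tris pH 7.5 buffer with MgCl2, Brij-35, BSA, EGTA, glycerol, DTT. Nonspecific binding defined with 2 mM ATP; TR-FRET IC50 from four-parameter fit.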

Row | SMILES | pIC50 [1] | pIC50 [2] | pIC50 [3] | pIC50 [4]
1 | [2H]C([2H])([2H])n1c(=O)n([C@@H]2CC[C@@H](NC(=O)OC)C2)c2cc(Nc3cc(C(=O)N4CCOCC4)c(-c4cnn(C)c4)c(OC4CCC4)n3)ncc21 [Example 102, Methyl ((1R,3R)-3-(6-((6-cyclobutoxy-5-(1-methyl-1H-pyrazol-4-yl)-4-(morpholine-4-carbonyl)pyridin-2-yl)amino)-3-(methyl-d3)-2-oxo-2,3-dihydro-1H-imidazo[4,5-c]pyridin-1-yl)cyclopentyl)carbamate] | ≥ 8.00 | ≥ 8.00 | < 6.00 | < 6.00
2 | [2H]C([2H])([2H])n1c(=O)n([C@@H]2CC[C@@H](NC(=O)OC)C2)c2cc(Nc3cc(CO)nc(-c4ccc(C(F)F)s4)n3)ncc21 [Example 103, Methyl ((1R,3R)-3-(6-((2-(5-(difluoromethyl)thiophen-2-yl)-6-(hydroxymethyl)pyrimidin-4-yl)amino)-3-(methyl-d3)-2-oxo-2,3-dihydro-1H-imidazo[4,5-c]pyridin-1-yl)cyclopentyl)carbamate] | ≥ 8.00 | ≥ 8.00 | < 6.00 | < 6.00
3 | [2H]C([2H])([2H])n1c(=O)n([C@@H]2CC[C@@H](NC(=O)OC)C2)c2cc(Nc3cc(C(=O)N4CCOCC4)cc(-c4ccc(C(F)F)s4)n3)ncc21 [Example 104, Methyl ((1R,3R)-3-(6-((6-(5-(difluoromethyl)thiophen-2-yl)-4-(morpholine-4-carbonyl)pyridin-2-yl)amino)-3-(methyl-d3)-2-oxo-2,3-dihydro-1H-imidazo[4,5-c]pyridin-1-yl)cyclopentyl)carbamate] | ≥ 8.00 | ≥ 8.00 | 6.00 to 6.30 | < 6.00
4 | [2H]C([2H])([2H])n1c(=O)n([C@@H]2CC[C@@H](NC(=O)OC)C2)c2cc(Nc3cc(C4CCN(C(C)=O)CC4)cc(-c4ncc(C(F)(F)F)s4)n3)ncc21 [Example 105, Methyl ((1R,3R)-3-(6-((4-(1-acetylpiperidin-4-yl)-6-(5-(trifluoromethyl)thiazol-2-yl)pyridin-2-yl)amino)-3-(methyl-d3)-2-oxo-2,3-dihydro-1H-imidazo[4,5-c]pyridin-1-yl)cyclopentyl)carbamate] | ≥ 8.00 | ≥ 8.00 | < 6.00 | < 6.00
5 | [2H]C([2H])([2H])n1c(=O)n([C@H]2C[C@H](C(C)(C)O)C2)c2cc(Nc3cc(-c4cnccc4C(F)(F)F)c4nc(C)c(-c5cnn(C(F)F)c5)n4n3)ncc21 [Example 106, 6-((3-(1-(Difluoromethyl)-1H-pyrazol-4-yl)-2-methyl-8-(4-(trifluoromethyl)pyridin-3-yl)imidazo[1,2-b]pyridazin-6-yl)amino)-1-((1r,3r)-3-(2-hydroxypropan-2-yl)cyclobutyl)-3-(methyl-d3)-1,3-dihydro-2H-imidazo[4,5-c]pyridin-2-one] | ≥ 8.00 | ≥ 8.00 | < 6.00 | < 6.00
6 | [2H]C([2H])([2H])n1c(=O)n([C@@H]2CC[C@@H](NC(=O)OC)C2)c2cc(Nc3cc(-c4cnn(C)c4)cc(-c4ncc(C(C)(C)O)s4)n3)ncc21 [Example 107, Methyl ((1R,3R)-3-(6-((6-(5-(2-hydroxypropan-2-yl)thiazol-2-yl)-4-(1-methyl-1H-pyrazol-4-yl)pyridin-2-yl)amino)-3-(methyl-d3)-2-oxo-2,3-dihydro-1H-imidazo[4,5-c]pyridin-1-yl)cyclopentyl)carbamate] | ≥ 8.00 | ≥ 8.00 | < 6.00 | < 6.00
7 | [2H]C([2H])([2H])n1c(=O)n([C@@H]2CC[C@@H](NC(=O)OC)C2)c2cc(Nc3cccc(-n4cc(C(F)(F)F)cn4)n3)ncc21 [Example 108, Methyl ((1R,3R)-3-(3-(methyl-d3)-2-oxo-6-((6-(4-(trifluoromethyl)-1H-pyrazol-1-yl)pyridin-2-yl)amino)-2,3-dihydro-1H-imidazo[4,5-c]pyridin-1-yl)cyclopentyl)carbamate] | ≥ 8.00 | ≥ 8.00 | < 6.00 | < 6.00
8 | [2H]C([2H])([2H])n1c(=O)n([C@@H]2CC[C@@H](NC(=O)OC)C2)c2cc(Nc3ccc4c(n3)n(-c3cnn(C(F)F)c3)c(=O)n4CC3(C#N)CC3)ncc21 [Example 114, Methyl ((1R,3R)-3-(6-((1-((1-cyanocyclopropyl)methyl)-3-(1-(difluoromethyl)-1H-pyrazol-4-yl)-2-oxo-2,3-dihydro-1H-imidazo[4,5-b]pyridin-5-yl)amino)-3-(methyl-d3)-2-oxo-2,3-dihydro-1H-imidazo[4,5-c]pyridin-1-yl)cyclopentyl)carbamate] | ≥ 8.00 | ≥ 8.00 | < 6.00 | < 6.00
9 | [2H]C([2H])([2H])n1c(=O)n([C@@H]2CC[C@@H](NC(=O)OC)C2)c2cc(Nc3cc(C(C)(C)O)c4nc(C)n(-c5cnn(C(F)F)c5)c4n3)ncc21 [Example 115, Methyl ((1R,3R)-3-(6-((3-(1-(difluoromethyl)-1H-pyrazol-4-yl)-7-(2-hydroxypropan-2-yl)-2-methyl-3H-imidazo[4,5-b]pyridin-5-yl)amino)-3-(methyl-d3)-2-oxo-2,3-dihydro-1H-imidazo[4,5-c]pyridin-1-yl)cyclopentyl)carbamate] | ≥ 8.00 | ≥ 8.00 | < 6.00 | < 6.00
10 | [2H]C([2H])([2H])n1c(=O)n([C@@H]2CC[C@@](C)(NC(=O)C3CC3)C2)c2cc(Nc3cc(C(=O)N4CCOCC4)c4cccc(C(F)(F)F)c4n3)ncc21 [Example 116, N-((1R,3R)-1-methyl-3-(3-(methyl-d3)-6-((4-(morpholine-4-carbonyl)-8-(trifluoromethyl)quinolin-2-yl)amino)-2-oxo-2,3-dihydro-1H-imidazo[4,5-c]pyridin-1-yl)cyclopentyl)cyclopropanecarboxamide] | ≥ 8.00 | ≥ 8.00 | 6.30 to 7.00 | 6.30 to 7.00
11 | [2H]C([2H])([2H])n1c(=O)n([C@@H]2CC[C@](C)(NC(=O)C3CC3)C2)c2cc(Nc3cc(CO)c4nn(C)c(-c5cnn(C(F)(F)F)c5)c4n3)ncc21 [Example 117, N-((1S,3R)-3-(6-((7-(hydroxymethyl)-2-methyl-3-(1-(trifluoromethyl)-1H-pyrazol-4-yl)-2H-pyrazolo[4,3-b]pyridin-5-yl)amino)-3-(methyl-d3)-2-oxo-2,3-dihydro-1H-imidazo[4,5-c]pyridin-1-yl)-1-methylcyclopentyl)cyclopropanecarboxamide] | ≥ 8.00 | ≥ 8.00 | < 6.00 | < 6.00
12 | [2H]C([2H])([2H])n1c(=O)n([C@@H]2CC[C@@H](NC(=O)OC)C2)c2cc(Nc3ccc4c(n3)c(-c3cnn(C(F)(F)F)c3)nn4CC(C)(C)O)ncc21 [Example 118, Methyl ((1R,3R)-3-(6-((1-(2-hydroxy-2-methylpropyl)-3-(1-(trifluoromethyl)-1H-pyrazol-4-yl)-1H-pyrazolo[4,3-b]pyridin-5-yl)amino)-3-(methyl-d3)-2-oxo-2,3-dihydro-1H-imidazo[4,5-c]pyridin-1-yl)cyclopentyl)carbamate] | ≥ 8.00 | ≥ 8.00 | < 6.00 | < 6.00
13 | [2H]C([2H])([2H])n1c(=O)n([C@@H]2CC[C@](C)(NC(=O)C3CC3)C2)c2cc(Nc3ccc4c(n3)c(-c3cnn(C(F)(F)F)c3)nn4CC(C)(C)O)ncc21 [Example 119, N-((1S,3R)-3-(6-((1-(2-Hydroxy-2-methylpropyl)-3-(1-(trifluoromethyl)-1H-pyrazol-4-yl)-1H-pyrazolo[4,3-b]pyridin-5-yl)amino)-3-(methyl-d3)-2-oxo-2,3-dihydro-1H-imidazo[4,5-c]pyridin-1-yl)-1-methylcyclopentyl)cyclopropanecarboxamide] | ≥ 8.00 | ≥ 8.00 | < 6.00 | < 6.00
